Here are results for nine compounds from patent US20250236609A1, “VPS34 INHIBITORS AND METHODS OF USE THEREOF” (Deciphera Pharmaceuticals, LLC, priority 2023, published 2025).

For one experiment, the target named is VPS34 (Homo sapiens (Human), UniProt Q8NEB9). The experiment in a line: Biochemical Assay for VPS34 (ADP-Glo kinase activity assay). As to conditions: 25 nM VPS34, 1 mM ATP, 1-hour incubation at 37° C.; read-out: VPS34 (Inhibition of biochemical activity of VPS34, IC50). Here is the method: Activity of VPS34 kinase was determined using an ADP-Glo kinase activity assay (Promega Corp). Assays were conducted in 384-well plates (5 μL assay volume) using 25 nM VPS34 (ThermoFisher Scientific), […] PI:3PS Lipid Kinase Substrate (Promega Corp.), and 1 mM ATP in kinase buffer. Inhibition of VPS34 was measured by adding serial diluted test compound (final assay concentration of 0.1% DMSO) followed by a 1-hour incubation at 37° C. ADP-Glo reagent was then added ([…]) followed by a 40 min incubation at rt. Kinase detection reagent was then added ([…]) and followed by a 60 min incubation at rt. Luminescence was then detected. The RLU at each compound concentration of was converted to percent inhibition using controls (i.e., reaction with no test compound and reaction with a known inhibitor) and IC50 values were calculated by fitting a four-parameter sigmoidal curve to the data using GeneData Screener software.
VPS34 Protein Sequence (Full Length with GST Tag)
For orientation: In ADP-Glo the light output rises with the ADP produced.

The target in experiment [1] is PI3K (p110α (E542K)/p85α) (Homo sapiens (Human), UniProt P42336, E542K). The experiment in a line: Lipid kinase selectivity panel (Reaction Biology). The class given is biochemical. The conditions noted are these: 1 μM compound, single dose duplicates, 10 μM ATP; read-out: Percent inhibition relative to DMSO control, PI3K (p110α (E542K)/p85α). Here is the method: (§1) The compounds of the present invention were tested in a standard lipid kinase selectivity panel: 16 other lipid kinases (Reaction Biology, Malvern, PA, USA), under conditions of non-disclosure, non-dissemination, and non-use. In brief, compounds (see Table 2) were tested at in single dose duplicates at 1 μM against lipid kinases, including PI3Kα, PI3Kβ, and PI3Kδ, and reactions were carried out at 10 μM ATP.
Sequence of PI3K (p110α (E542K)/p85α) (P42336 whole entry E542K): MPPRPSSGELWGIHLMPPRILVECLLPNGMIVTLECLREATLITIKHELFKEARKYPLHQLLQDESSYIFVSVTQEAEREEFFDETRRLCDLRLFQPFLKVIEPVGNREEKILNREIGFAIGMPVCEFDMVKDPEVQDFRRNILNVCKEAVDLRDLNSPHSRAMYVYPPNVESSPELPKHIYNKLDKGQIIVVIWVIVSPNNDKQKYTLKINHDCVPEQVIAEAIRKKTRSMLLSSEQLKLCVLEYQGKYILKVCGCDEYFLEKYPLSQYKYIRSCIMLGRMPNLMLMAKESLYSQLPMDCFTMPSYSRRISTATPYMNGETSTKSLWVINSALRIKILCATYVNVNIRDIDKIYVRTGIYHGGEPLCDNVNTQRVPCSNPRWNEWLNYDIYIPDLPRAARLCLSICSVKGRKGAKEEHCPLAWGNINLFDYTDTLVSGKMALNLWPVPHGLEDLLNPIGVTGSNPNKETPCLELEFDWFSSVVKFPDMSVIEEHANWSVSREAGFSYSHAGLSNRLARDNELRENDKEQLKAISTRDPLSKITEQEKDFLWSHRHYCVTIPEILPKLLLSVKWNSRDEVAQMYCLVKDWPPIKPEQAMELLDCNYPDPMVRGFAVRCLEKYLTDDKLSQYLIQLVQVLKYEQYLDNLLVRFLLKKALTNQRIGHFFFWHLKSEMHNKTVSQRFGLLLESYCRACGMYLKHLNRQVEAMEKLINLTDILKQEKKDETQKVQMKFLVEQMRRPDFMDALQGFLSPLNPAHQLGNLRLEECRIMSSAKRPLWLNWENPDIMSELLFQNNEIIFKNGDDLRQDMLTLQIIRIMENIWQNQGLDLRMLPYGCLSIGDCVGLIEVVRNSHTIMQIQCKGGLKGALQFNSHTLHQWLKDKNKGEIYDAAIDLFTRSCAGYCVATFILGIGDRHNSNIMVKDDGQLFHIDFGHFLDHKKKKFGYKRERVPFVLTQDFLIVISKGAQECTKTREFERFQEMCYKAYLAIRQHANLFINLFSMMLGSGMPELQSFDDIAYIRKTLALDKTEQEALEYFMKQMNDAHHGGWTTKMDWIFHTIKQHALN
Sequence of PI3K (p110α (E542K)/p85α) (P27986 whole entry partner): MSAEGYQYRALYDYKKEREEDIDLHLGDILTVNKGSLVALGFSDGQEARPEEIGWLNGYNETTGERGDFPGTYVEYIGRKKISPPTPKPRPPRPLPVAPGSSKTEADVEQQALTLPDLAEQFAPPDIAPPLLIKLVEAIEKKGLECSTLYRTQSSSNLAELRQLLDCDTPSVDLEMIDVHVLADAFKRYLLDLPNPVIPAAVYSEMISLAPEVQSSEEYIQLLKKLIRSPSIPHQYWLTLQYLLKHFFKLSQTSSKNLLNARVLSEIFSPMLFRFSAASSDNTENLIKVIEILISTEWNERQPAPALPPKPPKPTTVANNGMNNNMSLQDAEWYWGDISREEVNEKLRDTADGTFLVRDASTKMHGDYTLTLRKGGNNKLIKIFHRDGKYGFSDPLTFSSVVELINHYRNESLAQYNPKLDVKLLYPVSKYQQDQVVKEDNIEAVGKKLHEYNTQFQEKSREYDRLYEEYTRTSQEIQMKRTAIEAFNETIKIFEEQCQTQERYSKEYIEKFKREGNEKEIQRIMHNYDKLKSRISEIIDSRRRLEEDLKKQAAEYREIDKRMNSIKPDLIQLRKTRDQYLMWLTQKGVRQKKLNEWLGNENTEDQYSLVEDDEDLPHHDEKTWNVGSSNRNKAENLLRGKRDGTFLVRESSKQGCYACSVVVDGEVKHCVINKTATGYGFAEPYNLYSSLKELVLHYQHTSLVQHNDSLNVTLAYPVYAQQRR

The target in experiment [2] is PI3K (p110α (E545K)/p85α) (Homo sapiens (Human), UniProt P42336, E545K). The experiment in a line: Lipid kinase selectivity panel (Reaction Biology). The class given is biochemical. As to conditions: 1 μM compound, single dose duplicates, 10 μM ATP; read-out: Percent inhibition relative to DMSO control, PI3K (p110α (E545K)/p85α). Here is the method: as §1
Sequence of PI3K (p110α (E545K)/p85α) (P42336 whole entry E545K): as the sequence (P42336 whole entry E542K) above, with K542E, E545K counted along it
Sequence of PI3K (p110α (E545K)/p85α) (P27986 whole entry partner): as the sequence (P27986 whole entry partner) above
Experiment [3] addresses PI3K (p110α (H1047R)/p85α) (Homo sapiens (Human), UniProt P42336, H1047R). The experiment in a line: Lipid kinase selectivity panel (Reaction Biology). The format is biochemical. As to conditions: 1 μM compound, single dose duplicates, 10 μM ATP; read-out: Percent inhibition relative to DMSO control, PI3K (p110α (H1047R)/p85α). The method, then:
as §1

The next experiment has as its target PI3K (p110α/p65α) (Homo sapiens (Human), UniProt P42336). The experiment can be described thus: Lipid kinase selectivity panel (Reaction Biology). The format is biochemical. As to conditions: 1 μM compound, single dose duplicates, 10 μM ATP; read-out: Percent inhibition relative to DMSO control, PI3K (p110α/p65α). Here is the method: as §1
In another experiment the target is PI3KC2α (Homo sapiens (Human), UniProt O00443). The experiment can be described thus: Lipid kinase selectivity panel (Reaction Biology). The format is biochemical. The conditions noted are these: 1 μM compound, single dose duplicates, 10 μM ATP; read-out: Percent inhibition relative to DMSO control, PI3KC2α. Here is the method: as §1
The next experiment addresses PI3Kb (p110β/p85α) (Homo sapiens (Human), UniProt P42338). The experiment in a line: Lipid kinase selectivity panel (Reaction Biology). The format is biochemical. As to conditions: 1 μM compound, single dose duplicates, 10 μM ATP; read-out: Percent inhibition relative to DMSO control, PI3Kb (p110β/p85α). The method, then: as §1
The next experiment has as its target PI3Kd (p110δ/p85α) (Homo sapiens (Human), UniProt O00329). The experiment can be described thus: Lipid kinase selectivity panel (Reaction Biology). The format is biochemical. As to conditions: 1 μM compound, single dose duplicates, 10 μM ATP; read-out: Percent inhibition relative to DMSO control, PI3Kd (p110δ/p85α). Here is the method:
as §1

The target in the next experiment is PI3Kg (p110γ) (Homo sapiens (Human), UniProt P48736). The experiment in a line: Lipid kinase selectivity panel (Reaction Biology). The class given is biochemical. As to conditions: 1 μM compound, single dose duplicates, 10 μM ATP; read-out: Percent inhibition relative to DMSO control, PI3Kg (p110γ). The method, then:
as §1

The next experiment addresses PI3Kα (p110α/p85α) (Homo sapiens (Human), UniProt P42336). The experiment can be described thus: Lipid kinase selectivity panel (Reaction Biology). The class given is biochemical. The conditions noted are these: 1 μM compound, single dose duplicates, 10 μM ATP; read-out: Percent inhibition relative to DMSO control, PI3Kα (p110α/p85α). Here is the method: as §1

Sequence of PI3K (p110α/p65α) (P42336 whole entry, species assumed): as the sequence (P42336 whole entry E542K) above, with K542E counted along it
Sequence of PI3Kα (p110α/p85α) (P42336 whole entry, species assumed): as the sequence (P42336 whole entry E542K) above, with K542E counted along it
Sequence of PI3Kα (p110α/p85α) (P27986 whole entry partner, species assumed): as the sequence (P27986 whole entry partner) above
Sequence of PI3Kb (p110β/p85α) (P42338 whole entry, species assumed): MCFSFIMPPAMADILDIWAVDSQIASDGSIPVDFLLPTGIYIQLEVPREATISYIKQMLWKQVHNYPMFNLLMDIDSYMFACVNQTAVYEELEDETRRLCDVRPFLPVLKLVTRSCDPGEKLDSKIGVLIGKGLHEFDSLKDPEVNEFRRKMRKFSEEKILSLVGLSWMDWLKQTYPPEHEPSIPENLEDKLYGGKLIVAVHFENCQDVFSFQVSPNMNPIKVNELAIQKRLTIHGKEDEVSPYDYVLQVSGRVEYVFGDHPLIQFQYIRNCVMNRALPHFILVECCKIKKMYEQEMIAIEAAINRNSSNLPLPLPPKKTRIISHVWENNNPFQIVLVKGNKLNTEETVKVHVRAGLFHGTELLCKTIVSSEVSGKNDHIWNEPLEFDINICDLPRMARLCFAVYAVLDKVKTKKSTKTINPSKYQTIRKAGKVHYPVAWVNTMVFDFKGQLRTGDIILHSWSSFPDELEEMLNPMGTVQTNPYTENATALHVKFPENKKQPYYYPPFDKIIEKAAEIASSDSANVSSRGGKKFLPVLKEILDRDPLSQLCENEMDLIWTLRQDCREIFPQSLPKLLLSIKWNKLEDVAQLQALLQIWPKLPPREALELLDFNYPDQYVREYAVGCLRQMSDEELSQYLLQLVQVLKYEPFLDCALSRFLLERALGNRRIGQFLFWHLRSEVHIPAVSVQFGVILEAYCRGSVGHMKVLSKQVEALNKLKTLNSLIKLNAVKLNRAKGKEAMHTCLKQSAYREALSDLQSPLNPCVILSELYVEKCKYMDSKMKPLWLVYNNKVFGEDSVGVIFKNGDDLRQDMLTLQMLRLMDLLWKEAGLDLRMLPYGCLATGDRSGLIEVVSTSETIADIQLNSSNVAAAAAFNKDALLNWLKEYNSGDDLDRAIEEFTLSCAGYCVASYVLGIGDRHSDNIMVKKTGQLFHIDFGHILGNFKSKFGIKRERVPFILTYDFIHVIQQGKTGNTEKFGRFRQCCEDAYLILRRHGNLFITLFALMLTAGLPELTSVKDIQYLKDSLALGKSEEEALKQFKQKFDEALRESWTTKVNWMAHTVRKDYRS
Sequence of PI3Kb (p110β/p85α) (P27986 whole entry partner, species assumed): as the sequence (P27986 whole entry partner) above
Sequence of PI3Kg (p110γ) (P48736 whole entry, species assumed): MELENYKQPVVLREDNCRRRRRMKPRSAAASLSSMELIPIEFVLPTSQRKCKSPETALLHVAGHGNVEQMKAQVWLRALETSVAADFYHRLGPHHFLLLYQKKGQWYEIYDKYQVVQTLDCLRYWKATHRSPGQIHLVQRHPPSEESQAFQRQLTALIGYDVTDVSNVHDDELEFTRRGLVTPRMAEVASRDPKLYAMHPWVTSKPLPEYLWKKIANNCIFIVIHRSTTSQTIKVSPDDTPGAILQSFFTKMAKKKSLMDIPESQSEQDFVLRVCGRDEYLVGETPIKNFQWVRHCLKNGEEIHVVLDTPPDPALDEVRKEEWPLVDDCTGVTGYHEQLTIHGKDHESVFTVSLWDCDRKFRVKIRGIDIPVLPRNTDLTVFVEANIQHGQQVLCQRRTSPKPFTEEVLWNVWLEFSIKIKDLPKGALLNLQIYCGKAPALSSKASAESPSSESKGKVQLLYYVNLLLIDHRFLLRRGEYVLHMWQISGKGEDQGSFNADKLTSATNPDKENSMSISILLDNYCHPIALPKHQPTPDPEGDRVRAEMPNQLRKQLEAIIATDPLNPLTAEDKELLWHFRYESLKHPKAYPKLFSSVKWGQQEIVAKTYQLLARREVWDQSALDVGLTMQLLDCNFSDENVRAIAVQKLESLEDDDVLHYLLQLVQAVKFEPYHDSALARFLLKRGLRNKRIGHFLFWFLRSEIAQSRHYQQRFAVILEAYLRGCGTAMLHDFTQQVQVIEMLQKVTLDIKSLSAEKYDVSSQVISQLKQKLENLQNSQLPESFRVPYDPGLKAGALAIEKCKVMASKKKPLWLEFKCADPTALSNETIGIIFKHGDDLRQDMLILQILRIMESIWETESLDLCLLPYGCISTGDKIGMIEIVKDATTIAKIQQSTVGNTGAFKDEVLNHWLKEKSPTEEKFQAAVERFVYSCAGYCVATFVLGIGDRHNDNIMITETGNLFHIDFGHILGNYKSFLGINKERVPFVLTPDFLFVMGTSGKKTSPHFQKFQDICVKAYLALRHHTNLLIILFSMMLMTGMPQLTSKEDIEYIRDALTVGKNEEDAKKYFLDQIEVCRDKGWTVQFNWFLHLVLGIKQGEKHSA
Sequence of PI3K (p110α (H1047R)/p85α) (P42336 whole entry H1047R): as the sequence (P42336 whole entry E542K) above, with K542E, H1047R counted along it
Sequence of PI3K (p110α (H1047R)/p85α) (P27986 whole entry partner): as the sequence (P27986 whole entry partner) above

By IC50 is commonly meant the point on the concentration scale where inhibition reaches its midpoint. As to `COC(=O)Nc1cc(-c2cc(N3CCCC[C@@H]3C(F)(F)F)[nH]c(=O)c2)c(N)cn1` [Example 14], on VPS34, the 50% inhibitory concentration (IC50) is not above 100 nM. Moreover, the inhibition at 1 µM was -5% in [1]; 3% in experiment [2]; 0% in [3]; -7% on PI3K (p110α/p65α); -1% at PI3KC2α; -9% on PI3Kb (p110β/p85α). Moreover, the inhibition at 1 µM was -2% at PI3Kd (p110δ/p85α), 11% on PI3Kg (p110γ) and -3% on PI3Kα (p110α/p85α).

Consider `Cc1nccc(Nc2cc(-c3cc(-c4cccnc4C(F)(F)F)[nH]c(=O)c3)c(C)cn2)n1` [Example 38], for which, on VPS34, the IC50 is not above 100 nM. For the same compound, the inhibition at 1 µM in experiment [1] amounted to 16%; in [2] it was 24%; in experiment [3] it was 23%; at PI3K (p110α/p65α) it was 19%; on PI3KC2α, 4%; at PI3Kb (p110β/p85α), 18%. For the same compound, the inhibition at 1 µM on PI3Kd (p110δ/p85α) amounted to 52%; at PI3Kg (p110γ) it was 66%; on PI3Kα (p110α/p85α), 24%.

In the case of `Cc1cnc(NC(=O)CCN2CCCC2)cc1-c1cc(N2CCCC[C@@H]2C(F)(F)F)[nH]c(=O)c1` [Example 26], on VPS34, the IC50 lay within 100 to 500 nM. In addition, the inhibition at 1 µM in [1] was -2%; in [2], -1%; in [3], -8%; at PI3K (p110α/p65α), -4%; at PI3KC2α, 4%; on PI3Kb (p110β/p85α), -10%. The inhibition at 1 µM at PI3Kd (p110δ/p85α) was -5%; on PI3Kg (p110γ), -5%; at PI3Kα (p110α/p85α), -2%.

Regarding `COC(=O)Nc1ncc(C)c(-c2cc(-c3cccnc3C(F)(F)F)[nH]c(=O)c2)n1` [Example 6], the IC50 at VPS34 lay within 500 to 1000 nM. Moreover, the inhibition at 1 µM was 4% in [1]; 3% in experiment [2]; 19% in experiment [3]; -26% at PI3K (p110α/p65α); -3% on PI3KC2α; -14% on PI3Kb (p110β/p85α). Moreover, the inhibition at 1 µM at PI3Kd (p110δ/p85α) was -2%; on PI3Kg (p110γ), 5%; on PI3Kα (p110α/p85α), -2%.

As for `CNC(=O)Nc1cc(-c2cc(N3CCCC[C@@H]3C(F)(F)F)[nH]c(=O)c2)c(C)cn1` [Example 10], the IC50 at VPS34 fell in the range of 100 to 500 nM. Further, the inhibition at 1 µM in [1] is 0%; in [2], 3%; in experiment [3], -3%; at PI3K (p110α/p65α), -23%; at PI3KC2α, 0%; on PI3Kb (p110β/p85α), -12%. Besides, the inhibition at 1 µM is 1% at PI3Kd (p110δ/p85α), -16% on PI3Kg (p110γ) and -3% on PI3Kα (p110α/p85α).

For the compound `CNCC(=O)Nc1cc(-c2cc(N3CCCC[C@@H]3C(F)(F)F)[nH]c(=O)c2)c(C)cn1` [Example 24], the IC50 at VPS34 is 100 to 500 nM. Besides, the inhibition at 1 µM in experiment [1] was -4%; in [2], -2%; in experiment [3], -17%; on PI3K (p110α/p65α) it was -6%; on PI3KC2α it was 2%; on PI3Kb (p110β/p85α) it was -9%. The inhibition at 1 µM is -9% at PI3Kd (p110δ/p85α), -7% at PI3Kg (p110γ) and -1% at PI3Kα (p110α/p85α).

In the case of `Cc1cnc(NC(=O)CCN(C)C)cc1-c1cc(N2CCCC[C@@H]2C(F)(F)F)[nH]c(=O)c1` [Example 25], the concentration for half-maximal inhibition (IC50) on VPS34 lay in the range of 100 to 500 nM. Further, the inhibition at 1 µM in [1] was 1%; in experiment [2], -1%; in experiment [3], -7%; on PI3K (p110α/p65α), 0%; at PI3KC2α, -5%; on PI3Kb (p110β/p85α), -7%. In addition, the inhibition at 1 µM on PI3Kd (p110δ/p85α) is -7%; at PI3Kg (p110γ), -4%; at PI3Kα (p110α/p85α), 4%.

Take `Cc1cnc(NC(=O)OC2CC3(CNC3)C2)cc1-c1cc(N2CCCC[C@@H]2C(F)(F)F)[nH]c(=O)c1` [Example 28]: at VPS34, the IC50 was 100 to 500 nM. Moreover, the inhibition at 1 µM in [1] is -20%; in [2], -5%; in [3], -3%; on PI3K (p110α/p65α), -3%; at PI3KC2α it was 3%; at PI3Kb (p110β/p85α), 0%. The inhibition at 1 µM on PI3Kd (p110δ/p85α) was 6%; at PI3Kg (p110γ), -10%; on PI3Kα (p110α/p85α), -31%.

Take `COC(=O)Nc1cc(-c2cc(-c3cccnc3C(F)(F)F)[nH]c(=O)c2)c(N)cn1` [Example 15]: the IC50 on VPS34 was 100 to 500 nM. For the same compound, the inhibition at 1 µM is -11% in [1]; -2% in experiment [2]; 10% in experiment [3]; -12% on PI3K (p110α/p65α); -26% at PI3KC2α; -4% on PI3Kb (p110β/p85α). For the same compound, the results for the inhibition at 1 µM at PI3Kd (p110δ/p85α), at PI3Kg (p110γ) and on PI3Kα (p110α/p85α) were -5%, 16% and -19%, respectively.
